# Positions of bridges follow the written chain, without caps; N, C: chain ends. Non-standard residues stand in square brackets, D forms with d. Residues, ends and D or L forms follow the SMILES beside them. Trp(1-CH2COOH) = N[C@@H](Cc1cn(CC(=O)O)c2ccccc12)C(=O)O; Phe(4-F) = N[C@@H](Cc1ccc(F)cc1)C(=O)O; Phe(4-Me) = Cc1ccc(C[C@H](N)C(=O)O)cc1; Hyp = O=C(O)[C@@H]1C[C@@H](O)CN1; Aad = N[C@@H](CCCC(=O)O)C(=O)O; NMeNle = CCCC[C@H](NC)C(=O)O; Pip = O=C(O)[C@@H]1CCCCN1; NMeA = CN[C@@H](C)C(=O)O; Orn = NCCC[C@H](N)C(=O)O; Dab = NCC[C@H](N)C(=O)O; Dap = NC[C@H](N)C(=O)O; Ava = NCCCCC(=O)O
# Target: T1, PD-1-Ig binding to PD-L1-TVMV-His (PD-L1-His) (Homo sapiens, UniProt Q9NZQ7)
# T1 construct: hPDL1(19-239)-TVMV-His; made in house; host or cells: HEK293T cells
# Assay: PD-1/PD-L1 Homogenous Time-Resolved Fluorescence (HTRF) binding assay
# Conditions: PD-1-Ig (20 nM) / PD-L1-His (10 nM); numeric values
# In short: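 HTRF competition: compound pre-incubated 15 min with PD-L1-His (10 nM final), then PD-1-Ig (20 nM final) added for 15 min in dPBS, 0.1% BSA, 0.05% Tween-20. Detection with Eu-cryptate anti-Ig (1 nM) and APC anti-His (20 nM) antibodies.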
# T1 sequence (Q9NZQ7 with tags, fused parts or gaps): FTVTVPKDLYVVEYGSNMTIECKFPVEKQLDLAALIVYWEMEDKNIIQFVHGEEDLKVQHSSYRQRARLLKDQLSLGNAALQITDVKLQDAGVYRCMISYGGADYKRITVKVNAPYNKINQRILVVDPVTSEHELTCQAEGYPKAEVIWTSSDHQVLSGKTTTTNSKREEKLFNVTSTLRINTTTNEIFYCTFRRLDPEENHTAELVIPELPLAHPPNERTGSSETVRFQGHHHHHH
row,IC50,Structure (SMILES)
1,0.354 µM,CCCC[C@H]1C(=O)N(C)[C@@H](CCCC)C(=O)N[C@@H](CC(C)C)C(=O)NCCCCC(=O)N[C@@H](Cc2ccc(O)cc2)C(=O)N2CCCC[C@H]2C(=O)N[C@@H](CC(N)=O)C(=O)N2CCC[C@H]2C(=O)N[C@@H](CN)C(=O)N[C@@H](CCC(=O)O)C(=O)N2C[C@H](O)C[C@H]2C(=O)N[C@@H](Cc2c[nH]c3ccccc23)C(=O)N[C@@H](CCN)C(=O)N[C@@H](Cc2cn(CC(=O)O)c3ccccc23)C(=O)N1C [Example 10513] (cyclo([Ava]Y[Pip]NP[Dap]E[Hyp]W[Dab][Trp(1-CH2COOH)][NMeNle][NMeNle]L))

# Same assay, conditions: PD-1-Ig (20 nM) / PD-L1-His (10 nM); range classes
row,Structure (SMILES),IC50
1,CCCC[C@H]1C(=O)N(C)[C@@H](CCCC)C(=O)N[C@@H](CC(C)C)C(=O)N[C@H](C(=O)NCC(N)=O)CCCC(=O)N[C@@H](Cc2ccc(O)cc2)C(=O)N(C)[C@@H](C)C(=O)N[C@@H](CC(=O)O)C(=O)N2CCC[C@H]2C(=O)N[C@@H](Cc2c[nH]cn2)C(=O)N[C@@H](CCCCN)C(=O)N2C[C@H](O)C[C@H]2C(=O)N[C@@H](Cc2c[nH]c3ccccc23)C(=O)N[C@@H](CCCCN)C(=O)N[C@@H](Cc2cn(CC(=O)O)c3ccccc23)C(=O)N1C [Example 10516] (Y[NMeA]DPHK[Hyp]WK[Trp(1-CH2COOH)][NMeNle][NMeNle]L[Aad]G-NH2; lactam N-14),0.01 to 0.099 µM
2,CCCC[C@H]1C(=O)N(C)[C@@H](CCCC)C(=O)N[C@@H](CC(C)C)C(=O)N[C@H](C(N)=O)CCCC(=O)N[C@@H](Cc2ccc(O)cc2)C(=O)N2CCCC[C@H]2C(=O)N[C@@H](CC(N)=O)C(=O)N2CCC[C@H]2C(=O)N[C@@H](CN)C(=O)N[C@@H](CCC(=O)O)C(=O)N2C[C@H](O)C[C@H]2C(=O)N[C@@H](Cc2c[nH]c3ccccc23)C(=O)N[C@@H](CCN)C(=O)N[C@@H](Cc2cn(CC(=O)O)c3ccccc23)C(=O)N1C [Example 10520] (Y[Pip]NP[Dap]E[Hyp]W[Dab][Trp(1-CH2COOH)][NMeNle][NMeNle]L[Aad]-NH2; lactam N-14),0.01 to 0.099 µM
3,CCCC[C@H]1C(=O)N(C)[C@@H](CCCC)C(=O)N[C@@H](CC(C)C)C(=O)N[C@H](C(N)=O)CCCC(=O)N[C@@H](Cc2ccc(C)cc2)C(=O)N2CCCC[C@H]2C(=O)N[C@@H](CC(N)=O)C(=O)N2CCC[C@H]2C(=O)N[C@@H](CN)C(=O)N[C@@H](CCC(=O)O)C(=O)N2C[C@H](O)C[C@H]2C(=O)N[C@@H](Cc2c[nH]c3ccccc23)C(=O)N[C@@H](CCN)C(=O)N[C@@H](Cc2cn(CC(=O)O)c3ccccc23)C(=O)N1C [Example 10521] ([Phe(4-Me)][Pip]NP[Dap]E[Hyp]W[Dab][Trp(1-CH2COOH)][NMeNle][NMeNle]L[Aad]-NH2; lactam N-14),0.01 to 0.099 µM
4,CCCC[C@H]1C(=O)N(C)[C@@H](CCCC)C(=O)N[C@@H](CC(C)C)C(=O)N[C@H](C(N)=O)CCCC(=O)N[C@@H](Cc2ccc(OC)cc2)C(=O)N2CCCC[C@H]2C(=O)N[C@@H](CC(N)=O)C(=O)N2CCC[C@H]2C(=O)N[C@@H](CN)C(=O)N[C@@H](CCC(=O)O)C(=O)N2C[C@H](O)C[C@H]2C(=O)N[C@@H](Cc2c[nH]c3ccccc23)C(=O)N[C@@H](CCN)C(=O)N[C@@H](Cc2cn(CC(=O)O)c3ccccc23)C(=O)N1C [Example 10522] (Y(Me)[Pip]NP[Dap]E[Hyp]W[Dab][Trp(1-CH2COOH)][NMeNle][NMeNle]L[Aad]-NH2; lactam N-14),0.01 to 0.099 µM
5,CCCC[C@H]1C(=O)N(C)[C@@H](CCCC)C(=O)N[C@@H](CC(C)C)C(=O)N[C@H](C(N)=O)CCCC(=O)N[C@@H](Cc2ccc(OC)cc2)C(=O)N2CCCC[C@H]2C(=O)N[C@@H](CC(N)=O)C(=O)N2CCC[C@H]2C(=O)N[C@@H](CN)C(=O)N[C@@H](CC(C)C)C(=O)N2C[C@H](O)C[C@H]2C(=O)N[C@@H](Cc2c[nH]c3ccccc23)C(=O)N[C@@H](CCN)C(=O)N[C@@H](Cc2cn(CC(=O)O)c3ccccc23)C(=O)N1C [Example 10525] (Y(Me)[Pip]NP[Dap]L[Hyp]W[Dab][Trp(1-CH2COOH)][NMeNle][NMeNle]L[Aad]-NH2; lactam N-14),0.01 to 0.099 µM
6,CCCC[C@H]1C(=O)N(C)[C@@H](CCCC)C(=O)N[C@@H](CC(C)C)C(=O)N[C@H](C(N)=O)COCC(=O)N[C@@H](Cc2ccc(C)cc2)C(=O)N2CCCC[C@H]2C(=O)N[C@@H](CC(N)=O)C(=O)N2CCC[C@H]2C(=O)N[C@@H](CN)C(=O)N[C@@H](CC(C)C)C(=O)N2C[C@H](O)C[C@H]2C(=O)N[C@@H](Cc2c[nH]c3ccccc23)C(=O)N[C@@H](CCN)C(=O)N[C@@H](Cc2cn(CC(=O)O)c3ccccc23)C(=O)N1C [Example 10527],0.01 to 0.099 µM
7,CCCC[C@H]1C(=O)N(C)[C@@H](CCCC)C(=O)N[C@@H](CC(C)C)C(=O)N[C@H](C(N)=O)COCC(=O)N[C@@H](Cc2ccc(OC)cc2)C(=O)N2CCCC[C@H]2C(=O)N[C@@H](CC(N)=O)C(=O)N2CCC[C@H]2C(=O)N[C@@H](CN)C(=O)N[C@@H](CC(C)C)C(=O)N2C[C@H](O)C[C@H]2C(=O)N[C@@H](Cc2c[nH]c3ccccc23)C(=O)N[C@@H](CCN)C(=O)N[C@@H](Cc2cn(CC(=O)O)c3ccccc23)C(=O)N1C [Example 10528],0.01 to 0.099 µM
8,CCCC[C@H]1C(=O)N(C)[C@@H](CCCC)C(=O)N[C@@H](CC(C)C)C(=O)N[C@H](C(N)=O)COCC(=O)N[C@@H](Cc2ccc(F)cc2)C(=O)N2CCCC[C@H]2C(=O)N[C@@H](CC(N)=O)C(=O)N2CCC[C@H]2C(=O)N[C@@H](CN)C(=O)N[C@@H](CC(C)C)C(=O)N2C[C@H](O)C[C@H]2C(=O)N[C@@H](Cc2c[nH]c3ccccc23)C(=O)N[C@@H](CCN)C(=O)N[C@@H](Cc2cn(CC(=O)O)c3ccccc23)C(=O)N1C [Example 10529],0.01 to 0.099 µM
9,CCCC[C@H]1C(=O)N(C)[C@@H](CCCC)C(=O)N[C@@H](CC(C)C)C(=O)N[C@H](C(N)=O)COCC(=O)N[C@@H](Cc2ccc(OC)cc2)C(=O)N2CCCC[C@H]2C(=O)N[C@@H](CC(N)=O)C(=O)N2CCC[C@H]2C(=O)N[C@@H](CN)C(=O)N[C@@H](CCC(=O)O)C(=O)N2C[C@H](O)C[C@H]2C(=O)N[C@@H](Cc2c[nH]c3ccccc23)C(=O)N[C@@H](CCN)C(=O)N[C@@H](Cc2cn(CC(=O)O)c3ccccc23)C(=O)N1C [Example 10530],0.001 to 0.0099 µM
10,CCCC[C@H]1C(=O)N(C)[C@@H](CCCC)C(=O)N[C@@H](CC(C)C)C(=O)N[C@H](C(N)=O)COCC(=O)N[C@@H](Cc2ccc(F)cc2)C(=O)N2CCCC[C@H]2C(=O)N[C@@H](CC(N)=O)C(=O)N2CCC[C@H]2C(=O)N[C@@H](CN)C(=O)N[C@@H](CCC(=O)O)C(=O)N2C[C@H](O)C[C@H]2C(=O)N[C@@H](Cc2c[nH]c3ccccc23)C(=O)N[C@@H](CCN)C(=O)N[C@@H](Cc2cn(CC(=O)O)c3ccccc23)C(=O)N1C [Example 10531],0.001 to 0.0099 µM

# Next, values leading:
row,IC50,Structure (SMILES)
1,0.01 to 0.099 µM,CCCC[C@H]1C(=O)N(C)[C@@H](CCCC)C(=O)N[C@@H](CC(C)C)C(=O)N[C@H](C(=O)NCC(N)=O)CCCC(=O)N[C@@H](Cc2ccc(O)cc2)C(=O)N2CCCC[C@H]2C(=O)N[C@@H](CC(N)=O)C(=O)N2CCC[C@H]2C(=O)N[C@@H](CN)C(=O)N[C@@H](CC(C)C)C(=O)N2C[C@H](O)C[C@H]2C(=O)N[C@@H](Cc2c[nH]c3ccccc23)C(=O)N[C@@H](CCN)C(=O)N[C@@H](Cc2cn(CC(=O)O)c3ccccc23)C(=O)N1C [Example 10515] (Y[Pip]NP[Dap]L[Hyp]W[Dab][Trp(1-CH2COOH)][NMeNle][NMeNle]L[Aad]G-NH2; lactam N-14)
2,0.01 to 0.099 µM,CCCC[C@H]1C(=O)N(C)[C@@H](CCCC)C(=O)N[C@@H](CC(C)C)C(=O)NCCC[C@H](N)C(=O)N[C@@H](Cc2ccc(O)cc2)C(=O)N2CCCC[C@H]2C(=O)N[C@@H](CC(N)=O)C(=O)N2CCC[C@H]2C(=O)N[C@@H](CN)C(=O)N[C@@H](CC(C)C)C(=O)N2C[C@H](O)C[C@H]2C(=O)N[C@@H](Cc2c[nH]c3ccccc23)C(=O)N[C@@H](CCN)C(=O)N[C@@H](Cc2cn(CC(=O)O)c3ccccc23)C(=O)N1C [Example 10517] (H-[Orn]Y[Pip]NP[Dap]L[Hyp]W[Dab][Trp(1-CH2COOH)][NMeNle][NMeNle]L; lactam 1-C)
3,0.01 to 0.099 µM,CCCC[C@H]1C(=O)N(C)[C@@H](CCCC)C(=O)N[C@@H](CC(C)C)C(=O)NCCC[C@H](N)C(=O)N[C@@H](Cc2ccc(OC)cc2)C(=O)N2CCCC[C@H]2C(=O)N[C@@H](CC(N)=O)C(=O)N2CCC[C@H]2C(=O)N[C@@H](CN)C(=O)N[C@@H](CC(C)C)C(=O)N2C[C@H](O)C[C@H]2C(=O)N[C@@H](Cc2c[nH]c3ccccc23)C(=O)N[C@@H](CCN)C(=O)N[C@@H](Cc2cn(CC(=O)O)c3ccccc23)C(=O)N1C [Example 10518] (H-[Orn]Y(Me)[Pip]NP[Dap]L[Hyp]W[Dab][Trp(1-CH2COOH)][NMeNle][NMeNle]L; lactam 1-C)
4,0.01 to 0.099 µM,CCCC[C@H]1C(=O)N(C)[C@@H](CCCC)C(=O)N[C@@H](CC(C)C)C(=O)NCCC[C@H](N)C(=O)N[C@@H](Cc2ccc(C)cc2)C(=O)N2CCCC[C@H]2C(=O)N[C@@H](CC(N)=O)C(=O)N2CCC[C@H]2C(=O)N[C@@H](CN)C(=O)N[C@@H](CC(C)C)C(=O)N2C[C@H](O)C[C@H]2C(=O)N[C@@H](Cc2c[nH]c3ccccc23)C(=O)N[C@@H](CCN)C(=O)N[C@@H](Cc2cn(CC(=O)O)c3ccccc23)C(=O)N1C [Example 10519] (H-[Orn][Phe(4-Me)][Pip]NP[Dap]L[Hyp]W[Dab][Trp(1-CH2COOH)][NMeNle][NMeNle]L; lactam 1-C)
5,0.01 to 0.099 µM,CCCC[C@H]1C(=O)N(C)[C@@H](CCCC)C(=O)N[C@@H](CC(C)C)C(=O)N[C@H](C(N)=O)CCCC(=O)N[C@@H](Cc2ccc(F)cc2)C(=O)N2CCCC[C@H]2C(=O)N[C@@H](CC(N)=O)C(=O)N2CCC[C@H]2C(=O)N[C@@H](CN)C(=O)N[C@@H](CC(C)C)C(=O)N2C[C@H](O)C[C@H]2C(=O)N[C@@H](Cc2c[nH]c3ccccc23)C(=O)N[C@@H](CCN)C(=O)N[C@@H](Cc2cn(CC(=O)O)c3ccccc23)C(=O)N1C [Example 10526] ([Phe(4-F)][Pip]NP[Dap]L[Hyp]W[Dab][Trp(1-CH2COOH)][NMeNle][NMeNle]L[Aad]-NH2; lactam N-14)

# Reference: patent US9732119B2, “Immunomodulators” (BRISTOL-MYERS SQUIBB COMPANY, priority 2014, dated 2017)
